According to paper PMC8202924, “Emodepside targets SLO-1 channels of Onchocerca ochengi and induces broad anthelmintic effects in a bovine model of onchocerciasis” (PLoS Pathogens, 2021):

What was measured:
[1] = Blood glucose in the main trial, test-strip assay; format: in vivo, zebu (Ngaoundéré Gudali) cattle (B. t. indicus)
Protocol: Glucose concentrations were measured pre- and post-chemotherapy using venous blood, which was analyzed in a test-strip assay (MediTouch 2 blood glucose monitor, Medisana, Neuss, Germany). Both individual animal and group blood-glucose concentrations were compared with a standard reference range for cattle (45–75 mg/dL [58]). To evaluate group-level effects, 95% confidence intervals (CI) were calculated using the group mean, SD and sample number for each group at each respective timepoint, with changes in blood glucose concentration considered significant if either the lower CI exceeded the upper limit of the standard reference range, or the upper CI was below the lower limit of the standard reference range.

[2] = tested on: Onchocerca ochengi microfilariae; test: Dermal microfilarial load (area under the density-time curve); format: in vivo; details: MRSM, 4 mg/kg every other day for 3 days; vs placebo
Text: Here, the null hypothesis, H0, is that the parameter m is not different to 0. If H0 can be rejected, a concentration-dependent effect of emodepside can be assumed. The alpha level selected for statistical significance was 5%. We considered three PD endpoints, a) uterine contents (with oocytes, developing embryonic stages, normal intrauterine Mf and degenerate intrauterine Mf considered separately), b) skin Mf load, and c) male and female motility (separately). Mf load is defined as the area under the curve of observed counts over time according to Eq 4: Mfload=∑i=2nMfdensityi+Mfdensityi−1/2*ti−ti−1 (4) per individual treated animal. To increase the robustness of the analysis, only animals presenting a skin Mf load of ≥100/100 mg skin at day -1 were included.
The same principle was applied to the analysis of the uterine contents. In order to test a dose-dependent effect, and an effect over placebo, the log load of uterine contents or Mf was used as the PD endpoint E in Eq 3, and exposure C was the sum of doses. Over all doses and individual animals, an effect size (m) and corresponding statistics were calculated using R’s lm function.

[3] = tested on: Onchocerca ochengi adult female worms; test: Ex vivo visual motility assessment of adult female worms from nodules; format: in vivo; details: MRSM, 4 mg/kg every other day for 3 days
Protocol: Tattooed nodules were removed under local anesthesia (lidocaine-epinephrine) on study days -1, 90, 180–190, 270–290, 360 and 550 in a randomized order as previously described. Nodules were trimmed of excess tissue and up to four nodules per animal were processed separately as follows: (1) stored frozen at –80°C for PK analysis (up to day 14 only); (2) injected in toto with 10% neutral-buffered formalin and stored at 4°C for histopathology (up to day 290 only); or (3) dissected immediately in phosphate-buffered saline to separate adult male and female worms. The anterior end of the female worm (which even in viable specimens is the only motile part of the parasite) was removed from the worm mass and incubated alongside intact male worms for 30 min at 37°C for visual motility assessment on a three-point scale. The remaining portion of the female worm mass was subjectively scored for fecundity on a four-point scale (0, uteri empty or worm structure degraded; 1, low; 2, intermediate; 3, normal) by examining the uterine contents microscopically in situ. This was followed by a fully quantitative embryogram to enumerate oocytes, embryonic stages and intrauterine Mf as described previously.
The second class of PD endpoint considered was worm motility, which was recorded as a three-class categorical variable and quantified here as a fraction of normal worm motility. First, a linear model of decrease in motility per dose group was established with a study-wide mean motility at day –1: motilitydose_group,t=meanmotilityday−1−slopedose_group*t (5)

[4] = Skin concentration of emodepside in the main trial, LC-MS/MS; format: in vivo, zebu (Ngaoundéré Gudali) cattle (B. t. indicus)
Protocol: Bovine samples (EDTA-plasma, skin snips and nodules) were stored at –80°C in Cameroon and shipped according to international transportation guidelines on dry ice to Bayer, Germany. Due to suspected contamination with other pathogens, samples required decontamination. Based on modified WHO guidelines for viral inactivation and reports of virus stability in fluids and solid media issued by the United States Army, decontamination of samples was performed. Samples were thawed slowly in a microbiological safety cabinet and the plasma samples were vortexed gently. Skin snips and nodules were homogenized in a Qiagen TissueLyser II (Qiagen NV, Hilden, the Netherlands) with stainless steel beads. Homogenates were weighed and mixed with 4.5 volumes of a 0.5% collagenase solution (collagenase from Clostridium histolyticum [>125 IU/mg] Merck KGaA, Darmstadt, Germany), then incubated at 37°C with orbital mixing at 140 rpm for 48 h.
Plasma samples, skin and nodule homogenates were precipitated in a 1:10 ratio with acetonitrile using a vortex mixer at 150 rpm for 10 min, then centrifuged for 5 min at 14,000 rpm. The supernatants were pipetted into gas-tight vials and incubated at 80°C for 21 min to achieve a core temperature of 80°C for 10 min, then cooled to 4°C in a water-ice bath. Finally, samples were filtered using a cellulose sterile filter (S&S Spartan 13/30) into standard HPLC vials for liquid chromatography–mass spectrometry analysis. For liquid chromatography on a C18 column, a water/methanol gradient (containing 10 mmol ammonium acetate and 0.1 mL/L formic acid) was used. Quantification of emodepside was performed by tandem mass spectrometry on an API 5500 instrument (AB Sciex, Darmstadt, Germany) using the transition of m/z = 1,120 ([M + H]^+) to its product ion m/z = 343.

Row | Structure (SMILES) | Blood glucose, group-level 95% CI vs reference range 45–75 mg/dL ([1]; MRSM, 4 mg/kg every other day for 3 days, at 5 and 30 min and 2 h) | Median reduction in Mf load [2] [%] | Female worm motility ([3]; by day 90, all nodules) | Fraction of normal adult female worm motility ([3]; day 90, n = 7) [%] | Fraction of normal adult female worm motility ([3]; day 185, n = 7) [%] | Fraction of normal adult female worm motility ([3]; day 275, n = 7) [%] | Fraction of normal adult female worm motility ([3]; day 360, n = 2) [%] | Fraction of normal adult female worm motility ([3]; day 550, n = 2) [%] | Median ratio between skin and plasma concentration ([4]; 54 occasions, same study day, all emodepside groups) | tmax observed in skin ([4]; EMO1L, 0.15 mg/kg IV single dose, animals in order B0696, B0698, B0700, B0730, B0731, B0762) [h] | tmax observed in skin ([4]; EMO7H, 0.75 mg/kg IV daily for 7 days, animals in order B0404, B0434, B0694, B0695, B0734, B0750, B0765) [h] | Blood glucose, group-level 95% CI vs reference range 45–75 mg/dL ([1]; EMO1H, 0.75 mg/kg single dose, at 30 min, 2 and 6 h) | Blood glucose, group-level 95% CI vs reference range 45–75 mg/dL ([1]; EMO1L, 0.15 mg/kg single dose, at 30 min, 2 and 6 h) | Blood glucose, group-level 95% CI vs reference range 45–75 mg/dL ([1]; EMO7H, 0.75 mg/kg daily for 7 days, at 2 h)
1 | NCCS[As](SCCN)c1ccc(Nc2nc(N)nc(N)n2)cc1 [melarsomine] | significantly above the standard reference range | 96 | reduced to zero | 0 | 0 | 0 | 0 | 0 | – | – | – | – | – | –
2 | CC(C)C[C@H]1C(=O)O[C@H](Cc2ccc(N3CCOCC3)cc2)C(=O)N(C)[C@@H](CC(C)C)C(=O)O[C@H](C)C(=O)N(C)[C@@H](CC(C)C)C(=O)O[C@H](Cc2ccc(N3CCOCC3)cc2)C(=O)N(C)[C@@H](CC(C)C)C(=O)O[C@H](C)C(=O)N1C [emodepside] | – | – | – | – | – | – | – | – | 1.1 | 24 | 24 | significantly above the standard reference range | significantly above the standard reference range | significantly above the standard reference range
